In patent publication EP3925949A1, “AZIDO COMPOUNDS AND METHOD FOR MONITORING ACID CERAMIDASE ACTIVITY IN INTACT CELLS USING THEM” (Consejo Superior de Investigaciones Científicas (CSIC), priority 2020, dated 2021):

Key:
[1] = biological target: T1, acid ceramidase (AC) (Homo sapiens, UniProt Q13510); assay: Hydrolysis of RBM5-177 by lysates of AC overexpressing cells, UPLC-HRMS; format: biochemical; parameters: expressed in transfected cells; host or cells: A375/+Dox (overexpressing AC); conditions: lysates from A375/+Dox cells, 30 min
T1 sequence (Q13510 143-395 limits assumed): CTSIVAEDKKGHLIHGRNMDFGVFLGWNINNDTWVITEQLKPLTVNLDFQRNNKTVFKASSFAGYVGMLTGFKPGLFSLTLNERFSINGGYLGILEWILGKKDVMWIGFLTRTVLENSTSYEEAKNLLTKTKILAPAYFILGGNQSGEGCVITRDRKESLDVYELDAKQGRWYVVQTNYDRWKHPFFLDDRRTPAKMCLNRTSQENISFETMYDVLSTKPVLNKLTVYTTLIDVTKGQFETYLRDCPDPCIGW
T1 sequence (Q13510 22-142 limits assumed): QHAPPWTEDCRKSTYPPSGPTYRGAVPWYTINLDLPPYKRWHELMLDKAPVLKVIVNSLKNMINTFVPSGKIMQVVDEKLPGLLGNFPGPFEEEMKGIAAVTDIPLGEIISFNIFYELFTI
Experimental: Cells were suspended in the appropriate volume of a 0.25 M saccharose solution with the proteases inhibitors aprotinin (1 mg/ml), leupeptin (1 mg/mml) and PMSF (100 mM). The suspension was submitted to three cycles of a 5 s sonication (probe) at 10 watts/5 s resting on ice. The cell lysate was centrifuged at 600 g for 5 min. The supernatant was collected and protein concentration was determined as specified below.
Cells were seeded at 5 × 10^5 cells/mL into 6 well plates (1 mL/well) and were allowed to adhere for 24 h. Medium was replaced with fresh medium containing RBM5-177, RBM5-019 or RBM2-37 (5 µM final concentration). After 30 min, medium was removed; cells were washed with 400 µL PBS and harvested with 400 µL Trypsin-EDTA and 600 µL of medium. NC recombinant enzyme, […], MEF5 or microsomes from HeLa T-Rex ACER1-TET-ON and HeLa T-Rex […] activity buffer. Cell pellets were resuspended with 100 µL of H2O and mixed with 750 µL of methanol: chloroform, 2:1. Samples were heated at 48°C overnight and next day, 75 µL of 1 M KOH in methanol were added, followed by 2 h incubation at 37°C. Afterwards, the saponification was neutralised with 75 µL of 1 M acetic acid and solvent was removed using a Speed Vac Savant SPD131 DDA (Thermo Scientific). […]

[2] = biological target: T1, acid ceramidase (AC); assay: AC activity by flow cytometry with RBM5-177/CO-1 in intact cells; format: cell-based; parameters: expressed in transfected cells; host or cells: A375/+Dox and FD/AC (overexpressing AC); A375/-Dox and A549 (endogenous AC)
Experimental: Cells were seeded at 1 × 10^5 cells/mL into 6 well plates (1 mL/well) and were allowed to adhere for 24 h. Medium was replaced with fresh medium containing Soclac (5 µM final concentration) and incubated for 1 h. After this time, the medium was replaced with RBM5-177, RBM5-019 or RBM2-37 (5 µM final concentration) +/- Soclac and incubated for 20 min. In the experiments with DM120, the compound, Soclac and RBM5-177 were incubated together for 4 h. After probes incubation, the medium was replaced with fresh medium containing CO-1 (1 µM final concentration), and cells were incubated for 10 min. Then cells were washed 3 times with DMEM for 5 min at 37 °C, and finally washed with 400 µL PBS and harvested with 400 µL Trypsin-EDTA and 600 µL of medium. Pellets were resuspended with 200 µL of PBS and stained cells were analyzed by using a Guava EasyCyte™ flow cytometer (Merck Millipore, Billerica, MA) measuring green fluorescence (488/525 nm). Data analysis was performed using the Multicycle AV program (Phoenix Flow Systems, San Diego, CA).

[3] = tested on: mitochondria; assay: Confocal co-localization of probe/CO-1 staining with Mitotracker; format: cell-based; conditions: A375/+Dox, RBM5-177 probe, FB1 100 µM 24 h or SOCLAC 5 µM 1 h, independent treatments
Experimental: Cells were seeded at 1 × 10^5 cells/mL on glass-bottom plates and allowed to adhere for 24 h. For golgi staining, cells were incubated with 40 µL/well of CellLight Golgi-RFP BacMam 2.0 for 24 h. Medium was replaced with fresh medium containing RBM5-177, RBM5-019, RBM2-37 or RBM2-31 (5 µM final concentration) and cells were incubated for 20 min at 37 °C. After this time, the medium was replaced with fresh medium containing CO-1 (1 µM final concentration), and cells were incubated for 10 min. Then cells were washed 3 times with DMEM for 5 min at 37 °C, 75 nM LysoTracker Red DND-99 or 75 nM Mitotracker in phenol red-free DMEM was added to stain lysosomes or mitochondria, and cells were kept in the incubator for microscope analysis. Staining was viewed with a Zeiss LSM 880 confocal microscope or Leica TCS SP8-Hyvolution. Image analysis was performed using Fiji software.^[7] To measure the Manders's and Pearson's coefficients a threshold including organelles and discarding the background was set. Co-localization coefficients were measured using the JaCoP plugin (S. Bolte et al. J. Microsc. 2006, 224, 213-232) on the different stacks of images (at least n=4) with each stack containing 3-10 cells.

| Compound | RBM5-19 formation (hydrolysis as substrate) ([1]; RBM5-177 5 µM) | increase in the number of fluorescent counts over FD ([2]; FD/AC cells versus AC deficient FD cells, RBM5-177 5 µM 4 h, CO-1) [fold] | effect on mitochondria labelling [3] | inhibition of the formation of RBM5-19 from RBM5-177 ([1]; SOCLAC 5 µM, 1 h, then RBM5-177 5 µM) | effect on number of fluorescent counts ([2]; A375 cells, SOCLAC 5 µM 1 h pre-incubation (Fig. 5A, 5D)) | effect on number of labelled cells ([2]; A549 cell line, SOCLAC 5 µM 1 h (Fig. 5B, 5E)) | effect on number of labelled cells ([2]; FD/AC cells, SOCLAC 5 µM 1 h preincubation (Fig. 5C)) |
| --- | --- | --- | --- | --- | --- | --- | --- |
| CCCCCCCC(=O)N[C@@H](C)[C@H](O)CCCCCCCCCCCCN=[N+]=[N-] [RBM5-177, N-((2S,3R)-15-azido-3-hydroxypentadecan-2-yl)octanamide] | transformed into the free amine only by AC | 7 | – | – | – | – | – |
| CCCCCCCCCCCCC/C=C/[C@@H](O)[C@H](CO)NC(=O)CCl [SOCLAC] | – | – | mitochondria labelling was precluded | totally prevented the formation of RBM5-19 from RBM5-177 | significantly decreased | significantly decreasing the number of labelled cells | reduced down to FD levels |
